Test results: PMC13183915, “A platinum butterfly effect: small changes turn an anticancer drug into a non-toxic metalloantibiotic with in vivo efficacy” (npj Antimicrobials and Resistance, 2026)
Converted amounts (≈) assume the structure as drawn. “And” between values parts separate entries of the source, which are not always exact repeats. Identical values can stand only once. Like-named read-outs stand apart in the source and are kept apart here.

What was measured:
[1] = system: B. subtilis bSS82; assay: Bacterial cytological profiling (BCP); format: cell-based, Bacillus subtilis
Source text: To get an overview of the cellular effects of the compounds, we employed bacterial cytological profiling (BCP). To this end, we used a strain intracellularly expressing green-fluorescent protein (GFP) from the strong, constitutive PrpsD promoter (B. subtilis bSS82[37]), stained with the membrane dye Nile red and the DNA dye DAPI. Combined with phase contrast microscopy, this setup allows simultaneous assessment of cell morphology, cell lysis, pore formation, membrane morphology, and nucleoid morphology in one assay.
BCP was performed according to Wenzel et al.[71]. In short, B. subtilis strain […] (PrpsD-gfp) was grown to an OD600 of 0.3 prior to splitting of parent cultures and addition of antibiotics. Samples were taken for microscopy after 30, 60, and 120 min of antibiotic treatment. Five minutes prior to sampling, cultures were stained with 0.5 µg/mL Nile red and 1 µg/mL DAPI for 5 min. Samples of 0.5 µL were then spotted onto 1% agarose slides[45] and images were taken immediately.
Cell length and DAPI intensity were analyzed using MicrobeJ[73]. To this end, the fit shape, rod-shaped setting was used with a minimum area of 0.5 µm, while all other settings remained at default. B. subtilis chains were seperated based on the membrane stain. Membrane stress was counted using the ObjectJ plugin[74], using the membrane setting to seperate individual cells in chains. Membrane damage was expressed as ratio of cells with visible Nile red foci and total detected cells. DNA compaction was analyzed by determining the area of the DNA and the whole cell are using advanced weka segmentation. Cells were segmented according to the GFP signal. […] Cells that were out of focus or lysed were excluded from the analysis. Statistical analysis was peformed using GraphPad Prism 10 as specified in the individual figure legends.

[2] = system: Bacillus subtilis MW168; assay: MIC assay, B. subtilis MW168; format: cell-based
[3] = system: methicillin-resistant S. aureus (MRSA) COL; assay: MIC assay, MRSA COL; format: cell-based, Staphylococcus aureus
[4] = system: methicillin-sensitive Staphylococcus aureus (MSSA), clinical isolate; assay: MIC assay, MSSA clinical isolate; format: cell-based
[5] = system: HEK293T cells; format: cell-based, Human
Experimental: The control for the experiments was DMSO. HEK293T cells were cultivated in DMEM high glucose supplemented with 10% heat-inactivated fetal bovine serum, 100 U/mL of penicillin and streptomycin and maintained at a temperature of 37 °C with 5% CO2. Initially, 4000/well of cells were seeded into 96-well plates and incubated for 24 h before being exposed to compounds at concentrations ranging from 0.78, 50, and 100 µM. After 24 h of incubation, the compounds were added and serially diluted and incubated for 24 and 48 h at 37 °C 5% CO2, the cells were stained with alamar Blue, and the fluorescence excitation/ emission 540 nm/590 nm was measured using 96 well-plate reader. CC50 is defined as the lowest concentration of compound which leads to a 50% reduction in cell viability compared to untreated and DMSO control. Each experiment was repeated in triplicate.

[6] = system: RecA-GFP (B. subtilis UG10); assay: Localization of RecA-GFP (DNA damage reporter); format: cell-based, Bacillus subtilis; conditions: Pt1 3.125 µM, Pt8 25 µM, CisPt 100 µM; strongest after 10 min
Experimental: To confirm whether the compounds induce DNA damage in bacterial cells, the localization of RecA was assessed. RecA is part of the bacterial SOS response to DNA damage. It is a DNA-associated protein that recognizes single-stranded DNA, which occurs as a consequence of strand breaks. If strand breaks are present, RecA accumulates at the damaged sites, appearing as foci or elongated structures. Since the RecA response is strongest shortly after stress induction, we additionally examined a 10 min timepoint in this assay.
B. subtilis strains were grown in LB containing appropriate inducer concentrations as specified in Table S10. After reaching an OD600 of 0.3, cultures were split and treated with antibiotics. Samples were withdrawn after 30 and 60 min of treatment, spotted on glass slides covered with 1% agarose films, and immediately imaged.

[7] = system: MRSA NRS 100; assay: Broth microdilution MIC, MRSA NRS 100; format: cell-based, S. aureus; conditions: Staphylococcus aureus
Experimental: (§1) The data is given in supporting information (Table S5). Before starting the experiment, a single colony was picked from MHA plate, inoculated in MHBII and incubated overnight at 37 °C with shaking for 18–24 h to get the starter culture. Antibiotic susceptibility testing was conducted according to the CLSI (Clinical & Laboratory Standards Institute) guidelines using the broth microdilution assay. 10 mg/mL stock solutions of test compounds were prepared in DMSO. Bacterial cultures were inoculated in MHBII and optical density (OD) was measured at 600 nm, followed by dilution to achieve ~10^6 CFU/mL. The compounds were tested from 64 to 0.5 mg/L in two-fold serial diluted fashion with 2.5 μL of each concentration added to well of a 96-well round bottom microtiter plate. Later, 97.5 μL of bacterial suspension was added to each well containing either test compound or appropriate controls. […] The MIC is defined as the lowest concentration of the compound at which there is absence of visible growth. For each test compound, MIC determinations were carried out independently three times using duplicate samples.

[8] = system: MRSA NRS 198; assay: Broth microdilution MIC, MRSA NRS 198; format: cell-based, S. aureus; conditions: Staphylococcus aureus
Experimental: as §1

[9] = system: MRSA NRS 192; assay: Broth microdilution MIC, MRSA NRS 192; format: cell-based, S. aureus; conditions: Staphylococcus aureus
Experimental: as §1

[10] = system: MRSA NRS 129; assay: Broth microdilution MIC, MRSA NRS 129; format: cell-based, S. aureus; conditions: Staphylococcus aureus
Experimental: as §1

[11] = system: MRSA NRS 119; assay: Broth microdilution MIC, MRSA NRS 119; format: cell-based, S. aureus; conditions: Staphylococcus aureus
Experimental: as §1

[12] = system: MRSA NRS 194; assay: Broth microdilution MIC, MRSA NRS 194; format: cell-based, S. aureus; conditions: Staphylococcus aureus
Experimental: as §1

[13] = system: S. aureus ATCC 29213; assay: Post antibiotic effect (PAE); format: cell-based; conditions: for Time for 1 log10 increase in bacterial cfu count: 1 h exposure
Experimental: Post antibiotic effect (PAE) was determined as follows. […] Following incubation, cultures were centrifuged and washed twice with pre-warmed MHBII to remove any traces of antibiotics. Finally, cells were resuspended in drug-free MHBII and incubated further at 37 °C. Samples were taken every 1 h, serially diluted, and plated on tryptic soy agar (TSA) for enumeration of CFU. […] CFU observed immediately after the removal of the drug, and C in a similarly treated drug-free control.

[14] = system: VRSA VRS 12; assay: Broth microdilution MIC, VRSA VRS 12; format: cell-based, S. aureus; conditions: Staphylococcus aureus, VRSA
Experimental: as §1

[15] = system: 36th Passage S.aureus ATCC 29213 in the presence of Pt-1; assay: microbe, parasite or virus in culture; format: cell-based; conditions: Staphylococcus aureus, ATCC29213
Experimental: The MICs of the passaged cultures were determined every 3 days and compared to that of wild type S. aureus ATCC 29213. MIC changes were recorded for 36 passages.

[16] = system: MSSA ATCC 29213; assay: Broth microdilution MIC, MSSA ATCC 29213; format: cell-based, S. aureus; conditions: Staphylococcus aureus
Experimental: as §1

[17] = system: MRSA NRS 193; assay: Broth microdilution MIC, MRSA NRS 193; format: cell-based, S. aureus; conditions: Staphylococcus aureus
Experimental: as §1

[18] = system: MRSA NRS 191; assay: Broth microdilution MIC, MRSA NRS 191; format: cell-based, S. aureus; conditions: Staphylococcus aureus
Experimental: as §1

[19] = system: VRSA VRS 1; assay: Broth microdilution MIC, VRSA VRS 1; format: cell-based, S. aureus; conditions: Staphylococcus aureus, VRSA
Experimental: as §1

[20] = system: S. aureus ATCC 29213; assay: Drug interaction study (chequerboard assay); format: cell-based
Experimental: All compounds were freshly prepared for the experiment. […] Following incubation, the fractional inhibitory concentration index (FICI) was calculated with the formula FICI = […], whereby FICA = MIC of drug A in combination/MIC of drug A alone and FICB = MIC of drug B in combination/MIC of drug B alone. A drug combination is considered synergistic when ∑FICI is ≤0.5, indifferent when ∑FICI is >0.5 to 4, and antagonistic when ∑FICI is >4.

[21] = system: MRSA NRS 186; assay: Broth microdilution MIC, MRSA NRS 186; format: cell-based, S. aureus; conditions: Staphylococcus aureus
Experimental: as §1

[22] = system: VRSA VRS 4; assay: Broth microdilution MIC, VRSA VRS 4; format: cell-based, S. aureus; conditions: Staphylococcus aureus, VRSA
Experimental: as §1

[23] = system: S. aureus ATCC 29213; assay: Murine superficial skin infection model; format: in vivo; conditions: topical 2% cream, twice daily for 4 days, Swiss mice
Experimental: The in vivo efficacy of Pt1 was determined in a superficial skin infection model. Briefly, male Swiss mice, 4–6 weeks old, weighing ∼22–25 g, were used throughout the study. Mice were caged alone in an individually vented cage (IVC) to check cross-contamination and to maintain aseptic conditions throughout the experiment. Ketamine and xylazine were prepared in distilled water, 40 mg/kg and 8 mg/kg of body weight, respectively, and injected intraperitoneally (IP) as a mixture of 100 μL in each mouse for anaesthesia. Then, we proceeded with the removal of fur by applying depilatory cream. The area was cleaned with sterile distilled water. Approximately 2 cm^2 of skin area was scratched until it became visibly reddened and glistening without any bleeding. For bacterial infection, a 10 μL droplet containing 10^7 CFU/mL of S. aureus ATCC 29213 was applied to the reddened area of skin. To confirm the infection, post 4 h, untreated mice were sacrificed, skin homogenized, and various dilutions of the treatment groups (6 mice per group) were plated on TSA plates. […] Henceforth, the drug regimen was comprised of twice daily application (in the morning and the evening, with an 8 h interval) for 4 days. Control mice were regularly treated with 25–30 mg each of 2% fusidic acid (LEO Pharma, Ballerup, Denmark), 2% infuzide, and base (vehicle). […]

[24] = 60 min, Pt1 3.125 µM, Pt8 25 µM, CisPt 100 µM

## N.N.[Cl][Pt][Cl] [CisPt, cisplatin]
[1]; [24]
  DAPI fluorescence intensity: significant reduction of the DAPI signal
  nucleoid compaction (cell area vs DAPI-stained nucleoid area): clear nucleoid compaction
[1]; B. subtilis, 100 µM
  growth and cell length phenotype: slight growth defects and a mild cell elongation phenotype
[2]; B. subtilis MW168
  MIC: >100 µM
[3]; MRSA COL
  MIC: >100 µM
[4]; MSSA clinical isolate
  MIC: >100 µM
[5]; 24 h
  IC50: 81.6 ± 5.1 µM
[5]; 48 h
  IC50: 22 ± 3.4 µM
[6]
  RecA accumulation on nucleoids: clear RecA accumulations

## CN[C@H](CC(C)C)C(=O)N[C@H]1C(=O)N[C@@H](CC(N)=O)C(=O)N[C@H]2C(=O)N[C@H]3C(=O)N[C@H](C(=O)N[C@H](C(=O)O)c4cc(O)cc(O)c4-c4cc3ccc4O)[C@H](O)c3ccc(c(Cl)c3)Oc3cc2cc(c3O[C@@H]2O[C@H](CO)[C@@H](O)[C@H](O)[C@H]2O[C@H]2C[C@](C)(N)[C@H](O)[C@H](C)O2)Oc2ccc(cc2Cl)[C@H]1O [Van, Vancomycin]
[7]
  MIC: 1.34 µM (≈ 1.94 µg/mL)
[8]
  MIC: 1.34 µM (≈ 1.94 µg/mL)
[9]
  MIC: 0.67 to 1.34 µM (≈ 0.971 to 1.94 µg/mL)
[10]
  MIC: 0.67 µM (≈ 0.971 µg/mL)
[11]
  MIC: 1.34 µM (≈ 1.94 µg/mL)
[12]
  MIC: 0.67 µM (≈ 0.971 µg/mL)
[13]; 1x MIC
  PAE: ~ 2.5 h
  Time for 1 log10 increase in bacterial cfu count: ~ 5 h
[13]; 5x MIC
  PAE: ~ 2.5 h
  Time for 1 log10 increase in bacterial cfu count: ~ 5 h
[13]; 10x MIC
  Time for 1 log10 increase in bacterial cfu count: ~ 5 h
[13]; 10x MIC, listed as Vancomycin
  PAE: ~ 2.5 h
[13]; 10x MIC, listed as vancomycin
  PAE: 2.5 h
[14]
  MIC: > 43.1 µM
[2]; Bacillus subtilis, MW168
  MIC: < 0.22 µM
[15]
  MIC: 1 µg/mL (≈ 0.69 µM)
[3]; Staphylococcus aureus, MRSA
  MIC: 0.86 µM (≈ 1.25 µg/mL)
[16]
  MIC: 1 µg/mL and 0.67 µM
[4]; Staphylococcus aureus, MSSA
  MIC: 0.86 µM (≈ 1.25 µg/mL)
[17]
  MIC: 1.34 µM (≈ 1.94 µg/mL)
[18]
  MIC: 1.34 µM (≈ 1.94 µg/mL)
[19]
  MIC: > 43.1 µM
[20]; Staphylococcus aureus, ATCC29213
  MIC: 1 µg/mL
[20]; antibiotic in combination with Pt1 / alone
  FIC B: 1
[20]; combination with Pt1
  FIC (FICA+FICB): 2
[20]; combination with Pt1, synergistic ≤0.5, indifferent >0.5 to 4, antagonistic >4
  Interference: no interaction
[21]
  MIC: 0.67 µM (≈ 0.971 µg/mL)
[22]
  MIC: > 43.1 µM

## CC(=O)O[C@H]1C[C@@]2(C)[C@@H](C[C@@H](O)[C@H]3[C@@]4(C)CC[C@@H](O)[C@@H](C)[C@@H]4CC[C@@]32C)/C1=C(\CCC=C(C)C)C(=O)O [fusidic acid]
[23]
  reduction in bacterial load compared to vehicle-treated group: ~ 2.9 log10 CFU/g
